Results as given in the supplement of paper PMC10307832.

What was measured:
Assay in all cases: relative viability (nuclei count vs DMSO), 5 days (fraction); higher = more cells survive
Adavosertib + Linsitinib = compound: C=CCn1c(=O)c2cnc(Nc3ccc(N4CCN(C)CC4)cc3)nc2n1-c1cccc(C(C)(C)O)n1 [Adavosertib] + C[C@]1(O)C[C@@H](c2nc(-c3ccc4ccc(-c5ccccc5)nc4c3)c3c(N)nccn32)C1 [Linsitinib] (partner 1 µM)
Summary of the method: (§1)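 Each reported value is a median over duplicate plates. It expresses relative viability: treated-well nuclei count divided by vehicle-well nuclei count. Lung cancer cell lines in 1536-well plates were dosed by pin tool a day after seeding, alone with one drug or with a fixed anchor-drug dose plus five library-drug doses (not always all listed) in √10 steps, and nuclei were counted after 5 days.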

Nelarabine + Palbociclib = compound: COc1nc(N)nc2c1ncn2[C@@H]1O[C@H](CO)[C@@H](O)[C@@H]1O [Nelarabine] + CC(=O)c1c(C)c2cnc(Nc3ccc(N4CCNCC4)cn3)nc2n(C2CCCC2)c1=O [Palbociclib] (partner 0.5 µM)
Summary of the method: as §1

Adavosertib + Crizotinib = compound: C=CCn1c(=O)c2cnc(Nc3ccc(N4CCN(C)CC4)cc3)nc2n1-c1cccc(C(C)(C)O)n1 [Adavosertib] + C[C@@H](Oc1cc(-c2cnn(C3CCNCC3)c2)cnc1N)c1c(Cl)ccc(F)c1Cl [Crizotinib] (partner 1 µM)
Summary of the method: as §1

Nelarabine + Decitabine = compound: COc1nc(N)nc2c1ncn2[C@@H]1O[C@H](CO)[C@@H](O)[C@@H]1O [Nelarabine] + Nc1ncn([C@H]2C[C@H](O)[C@@H](CO)O2)c(=O)n1 [Decitabine] (partner 2 µM)
Summary of the method: as §1

Row | Cell Line | relative viability (Adavosertib + Linsitinib; first compound 0.01 µM) | relative viability (Adavosertib + Linsitinib; first compound 0.03162 µM) | relative viability (Adavosertib + Linsitinib; first compound 0.1 µM) | relative viability (Adavosertib + Linsitinib; first compound 0.3162 µM) | relative viability (Nelarabine + Palbociclib; first compound 0.01 µM) | relative viability (Nelarabine + Palbociclib; first compound 0.03162 µM) | relative viability (Nelarabine + Palbociclib; first compound 0.1 µM) | relative viability (Nelarabine + Palbociclib; first compound 0.3162 µM) | relative viability (Nelarabine + Palbociclib; first compound 1 µM) | relative viability (Adavosertib + Crizotinib; first compound 0.01 µM) | relative viability (Adavosertib + Crizotinib; first compound 0.03162 µM) | relative viability (Adavosertib + Crizotinib; first compound 0.1 µM) | relative viability (Adavosertib + Crizotinib; first compound 0.3162 µM) | relative viability (Nelarabine + Decitabine; first compound 0.01 µM) | relative viability (Nelarabine + Decitabine; first compound 0.03162 µM) | relative viability (Nelarabine + Decitabine; first compound 0.1 µM) | relative viability (Nelarabine + Decitabine; first compound 0.3162 µM) | relative viability (Nelarabine + Decitabine; first compound 1 µM)
1 | NCI-H520 | 0.883 | 0.794 | 1.11 | 0.874 | 0.215 | 0.186 | 0.236 | 0.261 | 0.168 | 0.925 | 0.83 | 0.94 | 0.579 | 0.566 | 0.44 | 0.512 | 0.617 | 0.485
2 | HCC-44 | 0.628 | 0.659 | 0.683 | 0.794 | 0.985 | 0.955 | 0.978 | 0.984 | 0.944 | 0.827 | 0.856 | 0.946 | 0.949 | 0.942 | 0.924 | 0.863 | 1.01 | 0.928
3 | NCI-H2087 | 0.906 | 1.11 | 1.07 | 0.87 | 0.251 | 0.189 | 0.268 | 0.198 | 0.192 | 0.911 | 0.96 | 1.03 | 0.896 | 0.248 | 0.28 | 0.309 | 0.335 | 0.3
4 | CAL-12T | 0.822 | 0.818 | 0.939 | 0.944 | 0.474 | 0.489 | 0.551 | 0.412 | 0.515 | 0.935 | 0.592 | 0.776 | 0.509 |  |  |  |  | 
5 | NCI-H1355 | 0.892 | 0.701 | 0.872 | 0.808 | 0.398 | 0.316 | 0.401 | 0.401 | 0.447 | 1.04 | 0.985 | 1.04 | 0.908 | 0.359 | 0.347 | 0.368 | 0.37 | 0.382
6 | HARA | 0.907 | 1.06 | 0.98 | 0.97 | 0.202 | 0.253 | 0.228 | 0.273 | 0.287 | 1 | 1.06 | 1.04 | 0.354 | 0.436 | 0.577 | 0.442 | 0.668 | 0.539
7 | NCI-H2085 | 0.872 | 0.996 | 0.988 | 0.827 | 0.479 | 0.437 | 0.479 | 0.459 | 0.431 | 0.748 | 0.866 | 0.946 | 0.85 | 0.536 | 0.535 | 0.52 | 0.605 | 0.439
8 | IA-LM | 0.687 | 0.749 | 0.692 | 0.807 |  |  |  |  |  | 0.868 |  | 1.02 | 0.784 |  |  |  |  | 
9 | LCLC-103H | 1.07 | 1.02 | 1.14 | 1.07 | 0.523 | 0.421 | 0.466 | 0.486 | 0.504 | 1.07 | 0.99 | 1.06 | 1.07 | 0.924 | 0.716 | 0.809 | 0.759 | 0.638
10 | NCI-H2405 | 0.959 | 0.966 | 1 | 0.995 | 0.495 | 0.48 | 0.516 | 0.529 | 0.51 | 0.804 | 0.875 | 0.872 | 0.879 | 0.674 | 0.686 | 0.745 | 0.816 | 0.721
11 | NCI-H1666 | 0.763 | 1.14 | 0.813 | 0.754 | 0.607 | 0.648 | 0.677 | 0.661 | 0.59 | 0.926 | 0.963 | 1.01 | 1.05 | 0.651 | 0.843 | 0.736 | 0.754 | 0.668
12 | Calu-6 | 0.906 | 0.917 | 1.02 | 0.866 |  |  |  |  |  | 0.777 | 0.746 | 0.916 | 0.343 |  |  |  |  | 
13 | BEN | 0.97 | 0.886 | 0.921 | 1.06 | 0.532 | 0.452 | 0.497 | 0.491 | 0.494 | 0.985 | 0.998 | 0.825 | 0.873 | 0.729 | 0.762 | 0.712 | 0.79 | 0.744
14 | 201T | 1.04 | 0.957 | 0.941 | 1.08 | 0.391 | 0.352 | 0.409 | 0.389 | 0.351 | 1.05 | 0.992 | 1.08 | 1.07 | 0.869 | 0.871 | 0.837 | 0.896 | 0.829
15 | NCI-H322M |  | 0.789 | 0.982 | 0.535 | 0.382 | 0.499 | 0.475 | 0.473 | 0.495 |  | 0.982 | 0.834 | 0.743 | 0.68 | 0.662 | 0.659 | 0.718 | 0.678
16 | NCI-H1792 | 0.601 | 0.519 | 0.493 | 0.559 |  | 0.58 | 0.904 | 0.78 | 0.922 | 0.978 | 0.881 | 1.05 | 1.05 | 0.642 | 0.428 | 0.573 | 0.579 | 0.634
